Source: ChEMBL document CHEMBL3885861, “Open TG-GATES”

Organism: Rattus norvegicus
Test: Open TG-GATES - Regimen: Single
Type: toxicity, organism-based, Sprague-Dawley
Parameters: regimen Single, gender Male, age 6 weeks
Details: in vivo, iv, 2000 mg/kg, route intravenous injection, dose level High; for APTT / Bas / Eos / Fbg / Hb / Ht / Lym / MCH / MCHC / MCV / Mono / PT / Plat / RBC / Ret / WBC: tissue Blood; for KIDNEY_L / KIDNEY_R / KIDNEY_TOTAL: tissue Kidney; for LIVER: tissue Liver; for ALP / ALT / AST / BUN / CRE / Ca / Cl / DBIL / GLC / IP / K / LDH / Na / PL / RALB / TBIL / TC / TG / TP / gamma-GTP: tissue Plasma

SMILES: CC(=O)OCC1=C(C(=O)O)N2C(=O)[C@@H](NC(=O)Cc3cccs3)[C@H]2SC1 [CEPHALOTHIN]
- TERMINAL_BW (3 h): 214.8 g
- APTT (3 h): 23.6 s
- Bas (3 h): 0%
- Eos (3 h): 0.4%
- Fbg (3 h): 277.6 mg/dL
- Hb (3 h): 13.6 g/dL
- Ht (3 h): 39.4%
- Lym (3 h): 66.4%
- MCH (3 h): 21.1 pg
- MCHC (3 h): 34.5%
- MCV (3 h): 61.3 fL
- Mono (3 h): 3.6%
- PT (3 h): 16.6 s
- Plat (3 h): 131.7 x10_4/uL
- RBC (3 h): 644 x10_4/ul
- Ret (3 h): 6.1%
- WBC (3 h): 63.2 x10_2/uL
- KIDNEY_L (3 h): 0.9 g
- KIDNEY_R (3 h): 1 g
- KIDNEY_TOTAL (3 h): 1.9 g
- LIVER (3 h): 9.6 g
- ALP (3 h): 1568.4 IU/L
- ALT (3 h): 46.4 IU/L
- AST (3 h): 94.6 IU/L
- BUN (3 h): 12.2 mg/dL
- CRE (3 h): 0.2 mg/dL
- Ca (3 h): 10.7 mg/dL
- Cl (3 h): 104.4 meq/L
- DBIL (3 h): 0.002 mg/dL
- GLC (3 h): 173.2 mg/dL
- IP (3 h): 9.3 mg/dL
- K (3 h): 4.2 meq/L
- LDH (3 h): 214.4 IU/L
- Na (3 h): 141.8 meq/L
- PL (3 h): 136 mg/dL
- RALB (3 h): 2.9 g/dL
- TBIL (3 h): 0.016 mg/dL
- TC (3 h): 68.2 mg/dL
- TG (3 h): 79.8 mg/dL
- TP (3 h): 5.4 g/dL
- gamma-GTP (3 h): 1.2 IU/L
- TERMINAL_BW (6 h): 214.6 g
- APTT (6 h): 23 s
- Bas (6 h): 0%
- Eos (6 h): 0.4%
- Fbg (6 h): 279.2 mg/dL
- Hb (6 h): 13.4 g/dL
- Ht (6 h): 39.1%
- Lym (6 h): 67.4%
- MCH (6 h): 21 pg
- MCHC (6 h): 34.3%
- MCV (6 h): 61.1 fL
- Mono (6 h): 3%
- PT (6 h): 16.3 s
- Plat (6 h): 121.3 x10_4/uL
- RBC (6 h): 639.8 x10_4/ul
- Ret (6 h): 5.9%
- WBC (6 h): 81.2 x10_2/uL
- KIDNEY_L (6 h): 1 g
- KIDNEY_R (6 h): 1.1 g
- KIDNEY_TOTAL (6 h): 2.1 g
- LIVER (6 h): 9.2 g
- ALP (6 h): 1347.4 IU/L
- ALT (6 h): 42.6 IU/L
- AST (6 h): 95.8 IU/L
- BUN (6 h): 12 mg/dL
- CRE (6 h): 0.1 mg/dL
- Ca (6 h): 10.6 mg/dL
- Cl (6 h): 105 meq/L
- DBIL (6 h): 0.002 mg/dL
- GLC (6 h): 171.6 mg/dL
- IP (6 h): 9.4 mg/dL
- K (6 h): 4.4 meq/L
- LDH (6 h): 182.6 IU/L
- Na (6 h): 141.2 meq/L
- PL (6 h): 145 mg/dL
- RALB (6 h): 2.9 g/dL
- TBIL (6 h): 0.022 mg/dL
- TC (6 h): 73.6 mg/dL
- TG (6 h): 136.6 mg/dL
- TP (6 h): 5.3 g/dL
- gamma-GTP (6 h): 1.2 IU/L
- TERMINAL_BW (9 h): 210.5 g
- APTT (9 h): 21.8 s
- Bas (9 h): 0%
- Eos (9 h): 1%
- Fbg (9 h): 290.8 mg/dL
- Hb (9 h): 13.4 g/dL
- Ht (9 h): 39.2%
- Lym (9 h): 70.8%
- MCH (9 h): 21 pg
- MCHC (9 h): 34.2%
- MCV (9 h): 61.4 fL
- Mono (9 h): 2.8%
- PT (9 h): 16.3 s
- Plat (9 h): 122.1 x10_4/uL
- RBC (9 h): 638.8 x10_4/ul
- Ret (9 h): 5.8%
- WBC (9 h): 69.5 x10_2/uL
- KIDNEY_L (9 h): 1 g
- KIDNEY_R (9 h): 1 g
- KIDNEY_TOTAL (9 h): 2 g
- LIVER (9 h): 8.6 g
- ALP (9 h): 1382 IU/L
- ALT (9 h): 39.4 IU/L
- AST (9 h): 90 IU/L
- BUN (9 h): 10.4 mg/dL
- CRE (9 h): 0.1 mg/dL
- Ca (9 h): 10.5 mg/dL
- Cl (9 h): 106 meq/L
- DBIL (9 h): 0 mg/dL
- GLC (9 h): 176 mg/dL
- IP (9 h): 9.3 mg/dL
- K (9 h): 4.5 meq/L
- LDH (9 h): 162.6 IU/L
- Na (9 h): 141 meq/L
- PL (9 h): 134.4 mg/dL
- RALB (9 h): 2.9 g/dL
- TBIL (9 h): 0.028 mg/dL
- TC (9 h): 66.4 mg/dL
- TG (9 h): 101.2 mg/dL
- TP (9 h): 5.3 g/dL
- gamma-GTP (9 h): 1.2 IU/L
- TERMINAL_BW (24 h): 223.7 g
- APTT (24 h): 21.3 s
- Bas (24 h): 0%
- Eos (24 h): 0.8%
- Fbg (24 h): 339.2 mg/dL
- Hb (24 h): 13.5 g/dL
- Ht (24 h): 38.6%
- Lym (24 h): 83.6%
- MCH (24 h): 20.4 pg
- MCHC (24 h): 34.8%
- MCV (24 h): 58.4 fL
- Mono (24 h): 2.4%
- PT (24 h): 16.2 s
- Plat (24 h): 117.9 x10_4/uL
- RBC (24 h): 661.4 x10_4/ul
- Ret (24 h): 5.4%
- WBC (24 h): 77.7 x10_2/uL
- KIDNEY_L (24 h): 1 g
- KIDNEY_R (24 h): 1 g
- KIDNEY_TOTAL (24 h): 2 g
- LIVER (24 h): 9 g
- ALP (24 h): 1511.8 IU/L
- ALT (24 h): 44.8 IU/L
- AST (24 h): 78.6 IU/L
- BUN (24 h): 15.6 mg/dL
- CRE (24 h): 0.2 mg/dL
- Ca (24 h): 10.6 mg/dL
- Cl (24 h): 106 meq/L
- DBIL (24 h): 0.004 mg/dL
- GLC (24 h): 183 mg/dL
- IP (24 h): 7.3 mg/dL
- K (24 h): 4.4 meq/L
- LDH (24 h): 162 IU/L
- Na (24 h): 142.2 meq/L
- PL (24 h): 143.8 mg/dL
- RALB (24 h): 3.1 g/dL
- TBIL (24 h): 0.02 mg/dL
- TC (24 h): 74.6 mg/dL
- TG (24 h): 76 mg/dL
- TP (24 h): 5.7 g/dL
- gamma-GTP (24 h): 1.6 IU/L
